Assay results: ChEMBL document CHEMBL1154822, “Synthesis and antiproliferative activity of 7-azaindirubin-3'-oxime, a 7-aza isostere of the natural indirubin pharmacophore” (J Nat Prod, 2009)

Assays:
Assay type in all cases: functional
NCI-H322M [1] = experiment: Cytotoxicity against human NCI-H322M cells assessed as cell growth at 1 mM after 1 to 11 days by MTT assay; conditions: read-out: Activity
SK-OV-3 = experiment: Cytotoxicity against human SKOV3 cells assessed as cell growth at 0.1 uM after 1 to 11 days by MTT assay; conditions: read-out: Activity
HCT-15 [2] = experiment: Cytotoxicity against human HCT15 cells assessed as cell growth at 1 uM after 1 to 11 days by MTT assay; conditions: read-out: Activity
OVCAR-5 = experiment: Cytotoxicity against human OVCAR5 cells assessed as cell growth at 100 uM after 1 to 11 days by MTT assay; conditions: read-out: Activity
T47D = experiment: Cytotoxicity against human T47D cells assessed as cell growth at 100 uM after 1 to 11 days by MTT assay; conditions: read-out: Activity
KM12 [3] = experiment: Cytotoxicity against human KM12 cells after 1 to 11 days by MTT assay
HOP-62 = experiment: Cytotoxicity against human HOP62 cells assessed as cell growth at 0.1 uM after 1 to 11 days by MTT assay; conditions: read-out: Activity
PC-3 = experiment: Cytotoxicity against human PC3 cells after 1 to 11 days by MTT assay
A498 = experiment: Cytotoxicity against human A498 cells assessed as cell growth at 100 uM after 1 to 11 days by MTT assay; conditions: read-out: Activity
KM12 [4] = experiment: Cytotoxicity against human KM12 cells assessed as cell growth at 1 mM after 1 to 11 days by MTT assay; conditions: read-out: Activity
OVCAR-3 = experiment: Cytotoxicity against human OVCAR-3 cells after 1 to 11 days by MTT assay
UO-31 [5] = experiment: Cytotoxicity against human UO31 cells after 1 to 11 days by MTT assay
SR [6] = experiment: Cytotoxicity against human SR cells assessed as cell growth at 10 uM after 1 to 11 days by MTT assay; conditions: read-out: Activity
MDA-MB-231 [7] = experiment: Cytotoxicity against human MDA-MB-231 cells assessed as cell growth at 1 uM after 1 to 11 days by MTT assay; conditions: read-out: Activity
TK-10 = experiment: Cytotoxicity against human TK10 cells after 1 to 11 days by MTT assay
KM12 [8] = experiment: Cytotoxicity against human KM12 cells assessed as cell growth at 0.1 uM after 1 to 11 days by MTT assay; conditions: read-out: Activity
HT-29 = experiment: Cytotoxicity against human HT-29 cells assessed as cell growth at 10 uM after 1 to 11 days by MTT assay; conditions: read-out: Activity
U-251 = experiment: Cytotoxicity against human U251 cells after 1 to 11 days by MTT assay
BT-549 [9] = experiment: Cytotoxicity against human BT549 cells assessed as cell growth at 100 uM after 1 to 11 days by MTT assay; conditions: read-out: Activity
MCF7 = experiment: Cytotoxicity against human MCF7 cells assessed as cell growth at 100 uM after 1 to 11 days by MTT assay; conditions: read-out: Activity
HCT-116 = experiment: Cytotoxicity against human HCT116 cells assessed as cell growth at 1 uM after 1 to 11 days by MTT assay; conditions: read-out: Activity
SF-539 = experiment: Cytotoxicity against human SF539 cells assessed as cell growth at 100 uM after 1 to 11 days by MTT assay; conditions: read-out: Activity
HL-60(TB) = experiment: Cytotoxicity against human HL-60(TB) cells after 1 to 11 days by MTT assay
CCRF-CEM [10] = experiment: Cytotoxicity against human CCRF-CEM cells assessed as cell growth at 1 uM after 1 to 11 days by MTT assay; conditions: read-out: Activity
A549 [11] = experiment: Cytotoxicity against human A549 cells assessed as cell growth at 0.1 uM after 1 to 11 days by MTT assay; conditions: read-out: Activity
A549 [12] = experiment: Cytotoxicity against human A549 cells assessed as cell growth at 1 mM after 1 to 11 days by MTT assay; conditions: read-out: Activity
SK-MEL-28 = experiment: Cytotoxicity against human SK-MEL-28 cells assessed as cell growth at 1 uM after 1 to 11 days by MTT assay; conditions: read-out: Activity
RPMI-8226 = experiment: Cytotoxicity against human RPMI8226 cells assessed as cell growth at 10 uM after 1 to 11 days by MTT assay; conditions: read-out: Activity
MOLT-4 = experiment: Cytotoxicity against human MOLT4 cells assessed as cell growth at 100 uM after 1 to 11 days by MTT assay; conditions: read-out: Activity
KM12 [13] = experiment: Cytotoxicity against human KM12 cells assessed as cell growth at 100 uM after 1 to 11 days by MTT assay; conditions: read-out: Activity
SW-620 = experiment: Cytotoxicity against human SW620 cells assessed as cell growth at 0.1 uM after 1 to 11 days by MTT assay; conditions: read-out: Activity
BT-549 [14] = experiment: Cytotoxicity against human BT549 cells assessed as cell growth at 1 uM after 1 to 11 days by MTT assay; conditions: read-out: Activity
SR [15] = experiment: Cytotoxicity against human SR cells assessed as cell growth at 100 uM after 1 to 11 days by MTT assay; conditions: read-out: Activity
UO-31 [16] = experiment: Cytotoxicity against human UO31 cells assessed as cell growth at 10 uM after 1 to 11 days by MTT assay; conditions: read-out: Activity
HCT-15 [17] = experiment: Cytotoxicity against human HCT15 cells assessed as cell growth at 10 uM after 1 to 11 days by MTT assay; conditions: read-out: Activity
M14 = experiment: Cytotoxicity against human M14 cells assessed as cell growth at 100 uM after 1 to 11 days by MTT assay; conditions: read-out: Activity
CCRF-CEM [18] = experiment: Cytotoxicity against human CCRF-CEM cells after 1 to 11 days by MTT assay
HCC 2998 = experiment: Cytotoxicity against human HCC2998 cells assessed as cell growth at 100 uM after 1 to 11 days by MTT assay; conditions: read-out: Activity
KM12 [19] = experiment: Cytotoxicity against human KM12 cells assessed as cell growth at 10 uM after 1 to 11 days by MTT assay; conditions: read-out: Activity
NCI-H322M [20] = experiment: Cytotoxicity against human NCI-H322M cells after 1 to 11 days by MTT assay
MDA-MB-231 [21] = experiment: Cytotoxicity against human MDA-MB-231 cells assessed as cell growth at 100 uM after 1 to 11 days by MTT assay; conditions: read-out: Activity
UACC-257 = experiment: Cytotoxicity against human UACC257 cells after 1 to 11 days by MTT assay
UO-31 [22] = experiment: Cytotoxicity against human UO31 cells assessed as cell growth at 1 mM after 1 to 11 days by MTT assay; conditions: read-out: Activity
[23] = read-out: LC50 (the source's name)

O=C1Nc2ncccc2/C1=C1/Nc2ccccc2/C1=N\O
growth at 1000 µM (NCI-H322M [1]): 12% | growth at 0.1 µM (SK-OV-3): 100% | growth at 1 µM (HCT-15 [2]): 96% | growth at 100 µM (OVCAR-5): 88% | growth at 100 µM (T47D): 16% | GI50 (KM12 [3]): 0.77 µM | TGI (KM12 [3]): > 100 µM | CC50 (KM12 [3]; [23]): > 100 µM | growth at 0.1 µM (HOP-62): 102% | GI50 (PC-3): 6.82 µM | TGI (PC-3): > 100 µM | CC50 (PC-3; [23]): > 100 µM | growth at 100 µM (A498): 18% | growth at 1000 µM (KM12 [4]): 6% | GI50 (OVCAR-3): > 100 µM | TGI (OVCAR-3): > 100 µM | CC50 (OVCAR-3; [23]): > 100 µM | GI50 (UO-31 [5]): 1.58 µM | TGI (UO-31 [5]): > 100 µM | CC50 (UO-31 [5]; [23]): > 100 µM | growth at 10 µM (SR [6]): 147% | growth at 1 µM (MDA-MB-231 [7]): 88% | GI50 (TK-10): 9.72 µM | TGI (TK-10): > 100 µM | CC50 (TK-10; [23]): > 100 µM | growth at 0.1 µM (KM12 [8]): 95% | growth at 10 µM (HT-29): 99% | GI50 (U-251): > 100 µM | TGI (U-251): > 100 µM | CC50 (U-251; [23]): > 100 µM | growth at 100 µM (BT-549 [9]): 43% | growth at 100 µM (MCF7): 52% | growth at 1 µM (HCT-116): 107% | growth at 100 µM (SF-539): 60% | GI50 (HL-60(TB)): 5.23 µM | TGI (HL-60(TB)): > 100 µM | CC50 (HL-60(TB); [23]): > 100 µM | growth at 1 µM (CCRF-CEM [10]): 76% | growth at 0.1 µM (A549 [11]): 102% | growth at 1000 µM (A549 [12]): 13% | growth at 1 µM (SK-MEL-28): 87% | growth at 10 µM (RPMI-8226): 68% | growth at 100 µM (MOLT-4): 26% | growth at 100 µM (KM12 [13]): 6% | growth at 0.1 µM (SW-620): 99% | growth at 1 µM (BT-549 [14]): 70% | growth at 100 µM (SR [15]): 29% | growth at 10 µM (UO-31 [16]): 62% | growth at 10 µM (HCT-15 [17]): 80% | growth at 100 µM (M14): 46% | GI50 (CCRF-CEM [18]): 5.07 µM | TGI (CCRF-CEM [18]): > 100 µM | CC50 (CCRF-CEM [18]; [23]): > 100 µM | growth at 100 µM (HCC 2998): 39% | growth at 10 µM (KM12 [19]): 45% | GI50 (NCI-H322M [20]): 1.35 µM | TGI (NCI-H322M [20]): > 100 µM | CC50 (NCI-H322M [20]; [23]): > 100 µM | growth at 100 µM (MDA-MB-231 [21]): 40% | GI50 (UACC-257): > 100 µM | TGI (UACC-257): > 100 µM | CC50 (UACC-257; [23]): > 100 µM | growth at 1000 µM (UO-31 [22]): 11%
